In ChEMBL document CHEMBL1131559, “Novel quinolone derivatives as potent antibacterials” (1998):
≈ marks a conversion by molar mass, not a printed value.

How the values were obtained:
Pseudomonas aeruginosa [1] = assay: Compound was evaluated for in vitro antibacterial activity against gram negative organism Pseudomonas aeruginosa strain DRCC 131; format: functional
Salmonella typhimurium = assay: Compound was evaluated for in vitro antibacterial activity against gram negative organism Salmonella Typhimurium MTCC 98; format: functional, Salmonella enterica subsp. enterica serovar Typhimurium; details: Salmonella enterica
Pseudomonas aeruginosa [2] = assay: Compound was evaluated for in vitro antibacterial activity against gram negative organism Pseudomonas aeruginosa strain DRCC 137; format: functional
Enterococcus faecalis [3] = assay: Compound was evaluated for in vitro antibacterial activity against gram positive organism Streptococcus faecalis strain ATCC 29212; format: functional
Staphylococcus aureus [4] = assay: Compound was evaluated for in vitro antibacterial activity against gram positive organism Staphylococcus aureus strain ATCC 29213; format: functional
Klebsiella pneumoniae [5] = assay: Compound was evaluated for in vitro antibacterial activity against gram negative organism Klebsiella pneumoniae strain DRCC 136; format: functional
Staphylococcus aureus [6] = assay: Compound was evaluated for in vitro antibacterial activity against gram positive organism Staphylococcus aureus strain ATCC 33591; format: functional
Streptococcus pyogenes = assay: Compound was evaluated for in vitro antibacterial activity against gram positive organism Streptococcus pyogenes strain DRCC 092; format: functional
Pseudomonas fluorescens [7] = assay: Compound was evaluated for in vitro antibacterial activity against gram negative organism Pseudomonas fluorescence strain DRCC 008; format: functional
Pseudomonas aeruginosa [8] = assay: Compound was evaluated for in vitro antibacterial activity against gram negative organism Pseudomonas aeruginosa strain DRCC 135; format: functional
[9] = system: Salmonella enterica subsp. enterica serovar Abony; assay: Compound was evaluated for in vitro antibacterial activity against gram negative organism Salmonella abony strain NCIM 2257; format: functional
Enterococcus faecalis [10] = assay: Compound was evaluated for in vitro antibacterial activity against gram positive organism Streptococcus faecalis strain ATCC 51299; format: functional
Staphylococcus aureus [11] = assay: Compound was evaluated for in vitro antibacterial activity against gram positive organism Staphylococcus aureus strain MTCC 737; format: functional
Escherichia coli [12] = assay: Compound was evaluated for in vitro antibacterial activity against gram negative organism Escherichia coli strain DRCC 091; format: functional
Salmonella typhi = assay: Compound was evaluated for in vitro antibacterial activity against gram negative organism Salmonella typhi strain MTCC 531; format: functional, Salmonella enterica subsp. enterica serovar Typhi; details: Salmonella enterica
Escherichia coli [13] = assay: Compound was evaluated for in vitro antibacterial activity against gram negative organism Escherichia coli strain ATCC 35218; format: functional
Enterococcus faecalis [14] = assay: Compound was evaluated for in vitro antibacterial activity against gram positive organism Streptococcus faecalis strain ATCC 49384; format: functional
Staphylococcus aureus [15] = assay: Compound was evaluated for in vitro antibacterial activity against gram positive organism Staphylococcus aureus strain ATCC 6538P; format: functional
Klebsiella pneumoniae [16] = assay: Compound was evaluated for in vitro antibacterial activity against gram negative organism Klebsiella pneumoniae strain DRCC 132; format: functional
Pseudomonas aeruginosa [17] = assay: Compound was evaluated for in vitro antibacterial activity against gram negative organism Pseudomonas aeruginosa strains ATCC 27853; format: functional
Escherichia coli [18] = assay: Compound was evaluated for in vitro antibacterial activity against gram negative organism Escherichia coli strain DRCC 134; format: functional
Escherichia coli [19] = assay: Compound was evaluated for in vitro antibacterial activity against gram negative organism Escherichia coli strain ATCC 25922; format: functional
Staphylococcus aureus [20] = assay: Compound was evaluated for in vitro antibacterial activity against gram positive organism Staphylococcus aureus strain ATCC 33592; format: functional
Escherichia coli [21] = assay: Compound was evaluated for in vitro antibacterial activity against gram negative organism Escherichia coli strain DRCC 133; format: functional
[22] = system: Staphylococcus epidermidis; assay: Compound was evaluated for in vitro antibacterial activity against gram positive organism Staphylococcus epidermidis strain ATCC 12228; format: functional
Pseudomonas aeruginosa [23] = assay: Compound was evaluated for in vitro antibacterial activity against gram negative organism Pseudomonas aeruginosa strain MTCC 1688; format: functional
Klebsiella pneumoniae [24] = assay: Compound was evaluated for in vitro antibacterial activity against gram negative organism Klebsiella pneumoniae strain ATCC 10031; format: functional
Pseudomonas fluorescens [25] = assay: Compound was evaluated for in vitro antibacterial activity against gram negative organism Pseudomonas fluorescence strain NCIMB 10586; format: functional
Enterococcus faecalis [26] = assay: Compound was evaluated for in vitro antibacterial activity against gram positive organism Streptococcus faecalis strainATCC 49384; format: functional; details: ATCC 49384
Pseudomonas aeruginosa [27] = assay: Compound was evaluated for in vitro antibacterial activity against gram negative organism Pseudomonas aeruginosa strainsATCC 27853; format: functional; details: ATCC 27853
Staphylococcus aureus [28] = assay: Compound was evaluated for in vitro antibacterial activity against gram positive organism Staphylococcus aureus strainATCC 6538P; format: functional; details: ATCC 6538P

SMILES | MIC (Pseudomonas aeruginosa [1]) [µg/mL] | MIC (Salmonella typhimurium) [µg/mL] | MIC (Pseudomonas aeruginosa [2]) [µg/mL] | MIC (Enterococcus faecalis [3]) [µg/mL] | MIC (Staphylococcus aureus [4]) [µg/mL] | MIC (Klebsiella pneumoniae [5]) [µg/mL] | MIC (Staphylococcus aureus [6]) [µg/mL] | MIC (Pseudomonas fluorescens [7]) [µg/mL] | MIC (Pseudomonas aeruginosa [8]) [µg/mL] | MIC [9] [µg/mL] | MIC (Staphylococcus aureus [11]) [µg/mL] | MIC (Escherichia coli [12]) [µg/mL] | MIC (Salmonella typhi) [µg/mL] | MIC (Klebsiella pneumoniae [16]) [µg/mL] | MIC (Escherichia coli [18]) [µg/mL] | MIC (Staphylococcus aureus [20]) [µg/mL] | MIC (Escherichia coli [21]) [µg/mL] | MIC [22] [µg/mL] | MIC (Pseudomonas aeruginosa [23]) [µg/mL] | MIC (Klebsiella pneumoniae [24]) [µg/mL] | other results
CN[C@@H]1CN(c2cc3c(cc2F)c(=O)c(C(=O)O)cn3C2CC2)C[C@H]1NC.Cl | 2 | 0.5 | > 8 | 2 | 1 | 0.5 | 1 | > 8 | > 8 | 1 | 1 | > 8 | 0.5 | > 8 | > 8 | 0.5 | > 8 | 0.5 | 2 | 0.06 | MIC (Streptococcus pyogenes): 0.06 µg/mL; MIC (Enterococcus faecalis [10]): 0.25 µg/mL; MIC (Escherichia coli [13]): 0.25 µg/mL; MIC (Enterococcus faecalis [14]): 4 µg/mL; MIC (Staphylococcus aureus [15]): 0.5 µg/mL; MIC (Pseudomonas aeruginosa [17]): 4 µg/mL; MIC (Escherichia coli [19]): 0.125 µg/mL
CN[C@@H]1CN(c2cc3c(cc2F)c(=O)c(C(=O)O)cn3-c2ccccc2F)C[C@H]1NC.O=C(O)C(F)(F)F | 0.5 | 1 | > 8 | 4 | 4 | 2 | 1 | > 8 | > 8 | 1 | 4 | > 8 | 4 | > 8 | > 8 | 4 | > 8 | 2 | 4 | 0.06 | MIC (Streptococcus pyogenes): 0.03 µg/mL; MIC (Enterococcus faecalis [10]): 2 µg/mL; MIC (Escherichia coli [13]): 0.5 µg/mL; MIC (Enterococcus faecalis [14]): 4 µg/mL; MIC (Staphylococcus aureus [15]): 0.5 µg/mL; MIC (Pseudomonas aeruginosa [17]): 4 µg/mL; MIC (Escherichia coli [19]): 1 µg/mL
CCn1cc(C(=O)O)c(=O)c2cc(F)c(N3CCNCC3)cc21 [NORFLOXACIN] | > 8 | 0.5 (≈ 1.57 µM) | 2 (≈ 6.26 µM) | 1 (≈ 3.13 µM) | 4 (≈ 12.5 µM) | 0.5 (≈ 1.57 µM) | 1 (≈ 3.13 µM) | 0.25 (≈ 0.783 µM) | > 8 | 0.5 (≈ 1.57 µM) | 4 (≈ 12.5 µM) | > 8 | 0.25 (≈ 0.783 µM) | > 8 | > 8 | 4 (≈ 12.5 µM) | > 8 | 1 (≈ 3.13 µM) | 0.125 (≈ 0.391 µM) | 0.03 (≈ 0.0939 µM) | MIC (Pseudomonas fluorescens [25]): > 8 µg/mL; MIC (Streptococcus pyogenes): 2 µg/mL (≈ 6.26 µM); MIC (Enterococcus faecalis [10]): 2 µg/mL (≈ 6.26 µM); MIC (Escherichia coli [13]): 0.125 µg/mL (≈ 0.391 µM); MIC (Enterococcus faecalis [14]): 4 µg/mL (≈ 12.5 µM); MIC (Staphylococcus aureus [15]): 1 µg/mL (≈ 3.13 µM); MIC (Pseudomonas aeruginosa [17]): 4 µg/mL (≈ 12.5 µM); MIC (Escherichia coli [19]): 0.03 µg/mL (≈ 0.0939 µM)
CCn1cc(C(=O)O)c(=O)c2cc(F)c(N3C[C@@H](NC)[C@H](NC)C3)c(F)c21.Cl | > 8 | 1 | 8 | 4 | 4 | 8 | 1 | 4 | > 8 | 8 | 4 | > 8 | 1 | > 8 | > 8 | 4 | > 8 | 2 | 1 | 0.5 | MIC (Streptococcus pyogenes): 4 µg/mL; MIC (Enterococcus faecalis [10]): 2 µg/mL; MIC (Escherichia coli [13]): 1 µg/mL; MIC (Enterococcus faecalis [14]): 8 µg/mL; MIC (Staphylococcus aureus [15]): 4 µg/mL; MIC (Pseudomonas aeruginosa [17]): 8 µg/mL; MIC (Escherichia coli [19]): 0.5 µg/mL
CN[C@@H]1CN(c2cc3c(cc2F)c(=O)c(C(=O)O)cn3-c2ccc(F)cc2)C[C@H]1NC.Cl | 0.25 | 1 | 1 | 0.5 | 0.5 | 0.5 | 1 | 2 | > 8 | 0.5 | 0.5 | > 8 | 0.25 | > 8 | > 8 | 0.25 | > 8 | 1 | 2 | 0.125 | MIC (Streptococcus pyogenes): 1 µg/mL; MIC (Enterococcus faecalis [10]): 0.25 µg/mL; MIC (Escherichia coli [13]): 1 µg/mL; MIC (Enterococcus faecalis [14]): 0.5 µg/mL; MIC (Staphylococcus aureus [15]): 0.5 µg/mL; MIC (Pseudomonas aeruginosa [17]): 4 µg/mL; MIC (Escherichia coli [19]): 0.5 µg/mL
O=C(O)c1cn(C2CC2)c2cc(N3CCNCC3)c(F)cc2c1=O [CIPROFLOXACIN] | > 8 | 0.25 (≈ 0.754 µM) |  | 0.125 (≈ 0.377 µM) | 2 (≈ 6.04 µM) | 1 (≈ 3.02 µM) | 0.25 (≈ 0.754 µM) | 0.5 (≈ 1.51 µM) | > 8 | 1 (≈ 3.02 µM) | 0.25 (≈ 0.754 µM) | > 8 | 0.25 (≈ 0.754 µM) | > 8 | > 8 | 4 (≈ 12.1 µM) | > 8 | 1 (≈ 3.02 µM) | 0.06 (≈ 0.181 µM) | 0.03 (≈ 0.0905 µM) | MIC (Pseudomonas fluorescens [25]): > 8 µg/mL; MIC (Enterococcus faecalis [14]): 4 µg/mL (≈ 12.1 µM); MIC (Staphylococcus aureus [15]): 0.5 µg/mL (≈ 1.51 µM)
CN[C@@H]1CN(c2c(F)c(N)c3c(=O)c(C(=O)O)cn(C4CC4)c3c2F)C[C@H]1NC.Cl | 1 | 0.125 | > 8 | 1 | 0.25 | 0.5 | 0.25 | > 8 | > 8 | 0.25 | 0.25 | > 8 | 0.25 | > 8 | > 8 | 0.25 | > 8 | 1 | 0.5 | 0.06 | MIC (Streptococcus pyogenes): 0.03 µg/mL; MIC (Enterococcus faecalis [10]): 0.25 µg/mL; MIC (Escherichia coli [13]): 0.5 µg/mL; MIC (Enterococcus faecalis [14]): 1 µg/mL; MIC (Staphylococcus aureus [15]): 0.5 µg/mL; MIC (Pseudomonas aeruginosa [17]): 4 µg/mL; MIC (Escherichia coli [19]): 0.06 µg/mL
N[C@@H]1CN(c2cc3c(cc2F)c(=O)c(C(=O)O)cn3C2CC2)C[C@H]1N.O=C(O)C(F)(F)F | > 8 | > 8 | > 8 | 2 | 2 | 4 | 2 | 1 | > 8 | 2 | 2 | > 8 | 1 | > 8 | > 8 | 8 | > 8 | 2 | 0.5 | 0.125 | MIC (Enterococcus faecalis [26]): 4 µg/mL; MIC (Streptococcus pyogenes): 1 µg/mL; MIC (Enterococcus faecalis [10]): 1 µg/mL; MIC (Escherichia coli [13]): 1 µg/mL; MIC (Pseudomonas aeruginosa [27]): 4 µg/mL; MIC (Escherichia coli [19]): 0.25 µg/mL; MIC (Staphylococcus aureus [28]): 2 µg/mL
CCn1cc(C(=O)O)c(=O)c2cc(F)c(N3C[C@@H](N)[C@H](N)C3)c(F)c21.Cl | > 8 | 0.5 | > 8 | 4 | 2 | > 8 | 2 | 4 | > 8 | 8 | 2 | > 8 | 1 | > 8 | > 8 | 4 | > 8 | 2 | 1 | 0.125 | MIC (Streptococcus pyogenes): 2 µg/mL; MIC (Enterococcus faecalis [10]): 2 µg/mL; MIC (Escherichia coli [13]): 1 µg/mL; MIC (Enterococcus faecalis [14]): 4 µg/mL; MIC (Staphylococcus aureus [15]): 2 µg/mL; MIC (Pseudomonas aeruginosa [17]): > 8 µg/mL; MIC (Escherichia coli [19]): 0.5 µg/mL
Cl.N[C@@H]1CN(c2cc3c(cc2F)c(=O)c(C(=O)O)cn3-c2ccc(F)cc2)C[C@H]1N | 1 | 1 | > 8 | 2 | 1 | > 8 | 1 | 2 | > 8 | 4 | 1 | > 8 | > 8 | > 8 | > 8 | 1 | > 8 | 1 | 2 | 1 | MIC (Streptococcus pyogenes): 0.5 µg/mL; MIC (Enterococcus faecalis [10]): 1 µg/mL; MIC (Escherichia coli [13]): 1 µg/mL; MIC (Enterococcus faecalis [14]): 1 µg/mL; MIC (Staphylococcus aureus [15]): 1 µg/mL; MIC (Pseudomonas aeruginosa [17]): 8 µg/mL; MIC (Escherichia coli [19]): 1 µg/mL
